# Measurements taken from paper PMC10477886, “Adamantaniline Derivatives Target ATP5B to Inhibit Translation of Hypoxia Inducible Factor‐1α” (Advanced Science, 2023).
# “Also recorded” adds a separate entry of the source.
# Columns and labels:
# Format in all cases: cell-based, human
# HIF‐1α translation = assay: polysome profile analysis; conditions: HEK293T, 12 h with MG‐132, hypoxia
# Experimental: Given that HI‐101 affected neither the transcription of HIF‐1α nor its degradation, we next tested whether HI‐101 regulated HIF‐1α translation. Polysome profile analysis is a commonly used method for studying translation process by separating polysomes and ribosomal subunits using a sucrose density gradient (SDG).^[ [53] ^] After treating with HI‐101 or DMSO for 12 h co‐incubated with MG‐132 under hypoxia condition, HEK293T cells were collected and polysome‐bound and polysome‐free mRNAs were isolated by using 10–50% sucrose gradient fractionation.
# Polysome RNA preparations and analysis were carried out as previously described.^[ [60] ^] Briefly, cells were seeded in 10 cm dishes, and washed with cold PBS containing 100 µg mL^−1 cycloheximide, and then lysed in a hypotonic lysis buffer [5 mM tris‐HCl (pH 7.5), 2.5 mM MgCl2, 1.5 mM KCl, 100 µg mL^−1 cycloheximide, 2 mM DTT, 0.5% Triton X‐100, and 0.5% sodium deoxycholate]. A lysate sample was used to isolate the cytoplasmic RNA using TRIzol (Invitrogen). […] Gradients were fractionated, and the optical density at 260 nm was continuously detected by a UV detector and fraction collector (Teledyne ISCO). […] Fractions with mRNA associated with polysomes were pooled and HIF‐1α mRNA abundance was detected by RT‐PCR amplification in each fraction of the polysome gradient. […]
# [1] = tested on: HIF‐1α and HIF‐1β mRNA expression; assay: RT‐qPCR of HIF‐1α and HIF‐1β mRNA
# Description: The whole protein synthesis process can be divided into four major steps: transcription, translation, posttranslational modifications and folding to a mature protein, and protein secretion.^[ [52] ^] We then investigated the potential effects of HI‐101 on HIF‐1α transcription and translation. […] On the basis of the existing experimental results, we draw a conclusion that HI‐101 inhibited the synthesis of nascent HIF‐1α protein without affecting its transcription.
# (§1) Total RNA was isolated using Trizol reagent (Invitrogen). Complementary DNA was synthesized using a Reverse Transcriptase reagent (Promega). Fluorescence real‐time PCR was performed with the double‐stranded DNA dye SYBR Master Mix (Roche Diagnostics Corporation, Indianapolis, IN, USA) and the Applied Biosystems Step One Plus detection system (ABI 7900). The upstream and downstream gene‐specific primers were as follows. • HIF‐1α sense: 5′‐[…]‐3′, • HIF‐1α antisense: 5′‐[…]‐3′; • HIF‐1β sense: 5′‐[…]‐3′, • HIF‐1β antisense:5′‐[…]‐3′; • VEGF sense: 5′‐[…]‐3′, • VEGF antisense: 5′‐[…]‐3′; • PDK1 sense:5′‐[…]‐3′, • PDK1 antisense:5′‐GGAGGTCTCAACACGAGGT‐3′; • β‐actin sense: 5′‐[…]‐3′, • β‐actin antisense: 5′‐[…]‐3′; • ATP5D sense:5′‐ […]‐3′, • ATP5D antisense: 5′‐[…]‐3′; • ATP5E sense: 5′‐ […]‐3′, • ATP5E antisense:5′‐[…]‐3′; • ATP5F1 sense: 5′‐ […]‐3′, • ATP5F1 antisense:5′‐[…]‐3′.
# [2] = tested on: HIF‐1α transcriptional activity; assay: dual‐luciferase assay (HRE‐Firefly Luciferase / renilla) of HIF‐1α transcriptional activity in HEK293T cells
# Outline: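 Stable HEK293T line carrying HRE-firefly luciferase, renilla and HIF-1α P402A/P564A mutant, giving HIF-1α expression under normoxia. Compounds incubated 24 h at 37 °C; firefly/renilla luciferase ratio read as HIF-1α transcriptional activity.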
# [3] = tested on: HIF‐1α target genes (VEGF and PDK1) mRNA expression; assay: quantitative RT‐PCR of HIF‐1α target genes; conditions: listed as HI‐101
# Experimental: as §1
compound,measurement,setting,value
"O=C(Nc1ccc(C23CC4CC(CC(C4)C2)C3)cc1)c1cccc(Cl)c1 [1‐3a, N‐(4‐((3r,5r,7r)‐Adamantan‐1‐yl)Phenyl)−3‐Chlorobenzamide]",HIF‐1α translation,HIF‐1α translation,efficiently inhibited HIF‐1α translation
same,HIF‐1α and HIF‐1β mRNA expression,[1],did not affect HIF‐1α and HIF‐1β mRNA expression
same,inhibition at 10 µM,"[2]; Homo sapiens, HEK-293T, 10 µM, incubation 24 h, HEK293T, mean ± s.d. (n = 3), read-out: Inhibition rate [%] @ 10 µM",81.4 ± 0.9%
same,IC50,"[2]; Homo sapiens, HEK-293T, HEK293T dual‐luciferase, mean ± s.d. (n = 3)",2000 ± 300 nM
same,"HIF‐1α transcriptional activity (luciferase), in words",[2]; hit confirmation,significantly inhibited HIF‐1α transcriptional activity
same,HIF‐1α target genes mRNA expression,[3],significantly inhibited HIF‐1α transcriptional activity and the expressions of HIF‐1α target genes; also recorded: significantly decreased the mRNA expression of HIF‐1α target gene VEGF
